System: acute HIV infection of T-lymphoid cells
Assay: Inhibition of acute HIV infection of T-lymphoid cells (spread assay)
Type: cell-based
Details: Human immunodeficiency virus 1
Method: An assay for the inhibition of acute HIV infection of T-lymphoid cells (alternatively referred to herein as the “spread assay”) was conducted in accordance with Vacca, J. P. et al., Proc. Natl. Acad. Sci. USA 1994, 91: 4096.

Compound	IC95 [µM]
CN1C[C@@H](c2ccccc2)n2nc(C(=O)NCc3ccc(F)cc3C(=O)NC3CC3)c(O)c2C1=O [Example 35, (7R)-N-{2-[(Cyclopropylamino)carbonyl]-4-fluorobenzyl}-3-hydroxy-5-methyl-4-oxo-7-phenyl-4,5,6,7-tetrahydropyrazolo[1,5-a]pyrazine-2-carboxamide]	≤ 10
CN1C[C@H](c2ccccc2)n2nc(C(=O)NCc3ccc(F)cc3C(=O)NC3CC3)c(O)c2C1=O [Example 36, (7S)-N-{2-[(Cyclopropylamino)carbonyl]-4-fluorobenzyl}-3-hydroxy-5-methyl-4-oxo-7-phenyl-4,5,6,7-tetrahydropyrazolo[1,5-a]pyrazine-2-carboxamide]	≤ 10
CN(C)C(=O)c1cc(F)ccc1CNC(=O)c1nn2c(c1O)C(=O)N(C)C[C@H]2c1ccccc1 [Example 37, (7R)-N-{2-[(Dimethylamino)carbonyl]-4-fluorobenzyl}-3-hydroxy-5-methyl-4-oxo-7-phenyl-4,5,6,7-tetrahydropyrazolo[1,5-a]pyrazine-2-carboxamide]	≤ 10
CN(C)C(=O)c1cc(F)ccc1CNC(=O)c1nn2c(c1O)C(=O)N(C)C[C@@H]2c1ccccc1 [Example 38, (7S)-N-{2-[(Dimethylamino)carbonyl]-4-fluorobenzyl}-3-hydroxy-5-methyl-4-oxo-7-phenyl-4,5,6,7-tetrahydropyrazolo[1,5-a]pyrazine-2-carboxamide]	≤ 10
CCNC(=O)c1cc(F)ccc1CNC(=O)c1nn2c(c1O)C(=O)N(C)C[C@H]2c1ccccc1 [Example 39, (7R)-N-{2-[(Ethylamino)carbonyl]-4-fluorobenzyl}-3-hydroxy-5-methyl-4-oxo-7-phenyl-4,5,6,7-tetrahydropyrazolo[1,5-a]pyrazine-2-carboxamide]	≤ 10
CCNC(=O)c1cc(F)ccc1CNC(=O)c1nn2c(c1O)C(=O)N(C)C[C@@H]2c1ccccc1 [Example 40, (7S)-N-{2-[(Ethylamino)carbonyl]-4-fluorobenzyl}-3-hydroxy-5-methyl-4-oxo-7-phenyl-4,5,6,7-tetrahydropyrazolo[1,5-a]pyrazine-2-carboxamide]	≤ 10
CN1C[C@@H](c2ccccc2)n2nc(C(=O)NCc3ccc(F)cc3C(N)=O)c(O)c2C1=O [Example 41, (7R)-N-[2-(Aminocarbonyl)-4-fluorobenzyl]-3-hydroxy-5-methyl-4-oxo-7-phenyl-4,5,6,7-tetrahydropyrazolo[1,5-a]pyrazine-2-carboxamide]	≤ 10
CN1C[C@H](c2ccccc2)n2nc(C(=O)NCc3ccc(F)cc3C(N)=O)c(O)c2C1=O [Example 42, (7S)-N-[2-(Aminocarbonyl)-4-fluorobenzyl]-3-hydroxy-5-methyl-4-oxo-7-phenyl-4,5,6,7-tetrahydropyrazolo[1,5-a]pyrazine-2-carboxamide]	≤ 10
CN1CC(c2cccc(Br)c2)n2nc(C(=O)NCc3ccc(F)cc3)c(O)c2C1=O (stereo not drawn) [Example 43, 7-(3-Bromophenyl)-N-(4-fluorobenzyl)-3-hydroxy-5-methyl-4-oxo-4,5,6,7-tetrahydropyrazolo[1,5-a]pyrazine-2-carboxamide]	≤ 10
CN1CC(c2cccc(C#N)c2)n2nc(C(=O)NCc3ccc(F)cc3)c(O)c2C1=O (stereo not drawn) [Example 44, 7-(3-Cyanophenyl)-N-(4-fluorobenzyl)-3-hydroxy-5-methyl-4-oxo-4,5,6,7-tetrahydropyrazolo[5,5-a]pyrazine-2-carboxamide]	≤ 10
CN1CC(c2ccncc2)n2nc(C(=O)NCc3ccc(F)cc3)c(O)c2C1=O (stereo not drawn) [Example 45, N-(4-Fluorobenzyl)-3-hydroxy-5-methyl-4-oxo-7-pyridin-4-yl-4,5,6,7-tetrahydropyrazolo[1,5-a]pyrazine-2-carboxamide]	≤ 10
CN1CC(c2ccncc2)n2nc(C(=O)NCc3ccc(F)c(Cl)c3)c(O)c2C1=O (stereo not drawn) [Example 46, N-(3-Chloro-4-fluorobenzyl)-3-hydroxy-5-methyl-4-oxo-7-pyridin-4-yl-4,5,6,7-tetrahydropyrazolo[1,5-a]pyrazine-2-carboxamide]	≤ 10
